Reference: patent publication US5607953A, “Butenoic or propenoic acid derivative” (Eisai Co., Ltd., priority 1988, dated 1997)

Tests used:
[1] = test system: anesthetized thoracotomized dog; assay: Heart rate lowering and coronary bloodflow increasing effects upon anesthetized thoracotomized dog; type: in vivo; conditions: compounds of group (I), 0.3 mg/kg intravenous, anesthetized mongrel; for Coronary bloodflow (CBF): rate of increase in coronary bloodflow: left circumflex branch
Method: Heart Rate Lowering and Coronary Bloodflow Increasing Effects Upon Anesthetized Thoracotomized Dog
The chest of a grown-up mongrel was opened under enflurane inhalation anesthesia. The blood flow of the coronary artery was determined by setting a probe of an electromagnetic bloodflowmeter at its left circumflexbranch, while the heart rate was determined by triggering the wave form of the pressure in its left ventricle and counting it with a tachometer.
The intravenous administration of a test compound (in a dose of 0.3 mg per kg of the weight of the anesthetized mongrel) was carried out by using a catheter inserted into its femoral […].
The effect of increasing the bloodflow of the circumflex branch of the left coronary artery or the heart rate lowering effect was evaluated based on the difference between the bloodflow or the heart rate after the administration and that before the administration according to the following criteria.

[2] = Acute toxicity test (intravenous injection) using a mouse; conditions: in vivo
Excerpt: The representative compounds of the present invention were examined by an ordinary acute toxicity test (intravenous injection) using a mouse to obtain the results shown in Table 4.

| SMILES | Heart rate (HR): rate of reduction in heart rate [1] | Coronary bloodflow (CBF): rate of increase in coronary bloodflow [1] | LD50 [2] |
| --- | --- | --- | --- |
| CN(CCCNC(=O)C/C=C/c1ccc(-n2ccnc2)cc1)CCc1ccc2c(c1)OCO2 [Compound K, (E)-N-[3-((N'-(2-(3,4-Methylenedioxyphenyl)-ethyl)-N'-methyl)amino)propyl]-4-(4-(1H-imidazol-1-yl)phenyl)-3-butenamide] | ++ (11-20%) | + (1-100%) | – |
| COc1ccc(CCN(C)CCCNC(=O)C/C=C/c2ccc(-n3cnc(C)c3)cc2)cc1OC [Compound L, (E)-N-[3-((N'-(2-(3,4-Dimethoxyphenyl)ethyl)-N'-methyl)amino)propyl]-4-(4-(4-methyl-1H-imidazol-1-yl)phenyl)-3-butenamide] | + (1-10%) | + (1-100%) | 92 mg/kg |
| COc1ccc(CCN(C)CCCNC(=O)C/C=C/c2ccc(-n3cncn3)cc2)cc1OC [Compound M, (E)-N-[3-((N'-(2-(3,4-Dimethoxyphenyl)ethyl)-N'-methyl)amino)propyl]-4-(4-(1H-1,2,4-triazol-1-yl)phenyl)-3-butenamide] | + (1-10%) | + (1-100%) | 120 mg/kg |
